Assay results: US20080139574A1, “Novel quinoline derivatives” (CADILA HEALTHCARE LIMITED, priority 2006, published 2008)
Converted amounts (≈) assume the structure as drawn.

What was measured:
[1] = system: Streptococcus pneumoniae ATCC 700904; test: In vitro MIC, broth micro dilution; assay type: cell-based; details: ATCC700904
Experimental: (§1) The in vitro (MIC) antibacterial activity of the compounds against susceptible Gram-positive, multidrug resistant Gram-positive and Gram-negative was tested as growth inhibition with the use of broth micro dilution method according to the guidelines of Clinical and Laboratory Standards Institute (formerly National Committee for Clinical Laboratory Standards). Compounds were dissolved in DMSO and water was added to get stock solution in 80% DMSO. The working solution was prepared by diluting the stock solution 1:10 times in 4-8% DMSO in water or medium, and the dissolved compounds were evaluated in the concentrations of 0.125, 0.25, 0.5, 1, 2, 4, 8, and 16 μg/mL and the concentration was finally expressed in μM.

[2] = system: Bacillus cereus ATCC 11778; test: In vitro MIC, broth micro dilution; assay type: cell-based; details: ATCC11778
Experimental: as §1

[3] = system: Enterococcus faecium ATCC 51559; test: In vitro MIC, broth micro dilution; assay type: cell-based; details: ATCC51559
Experimental: as §1

[4] = system: Enterococcus faecalis ATCC 700802; test: In vitro MIC, broth micro dilution; assay type: cell-based; details: ATCC700802
Experimental: as §1

[5] = system: Pseudomonas aeruginosa ATCC 27853; test: In vitro MIC, broth micro dilution; assay type: cell-based; details: ATCC27853
Experimental: as §1

[6] = system: Staphylococcus aureus ATCC 25923; test: In vitro MIC, broth micro dilution; assay type: cell-based; details: ATCC25923
Experimental: as §1

[7] = system: ATCC 700603; test: In vitro MIC, broth micro dilution; assay type: cell-based; details: ATCC700603; Staphylococcus pyogens ATCC 700603
Experimental: as §1

[8] = system: Staphylococcus aureus ATCC 9144; test: In vitro MIC, broth micro dilution; assay type: cell-based; details: ATCC9144
Experimental: as §1

[9] = system: Enterococcus faecium ATCC 700221; test: In vitro MIC, broth micro dilution; assay type: cell-based; details: ATCC700221
Experimental: as §1

[10] = system: Klebsiella pneumoniae ATCC 10031; test: In vitro MIC, broth micro dilution; assay type: cell-based; details: ATCC10031
Experimental: as §1

[11] = system: Enterococcus faecalis ATCC 35550; test: In vitro MIC, broth micro dilution; assay type: cell-based; details: ATCC35550
Experimental: as §1

[12] = system: Bacillus pumilis ATCC 14884; test: In vitro MIC, broth micro dilution; assay type: cell-based; details: ATCC14884
Experimental: as §1

[13] = system: Staphylococcus aureus ATCC 29213; test: In vitro MIC, broth micro dilution; assay type: cell-based; details: ATCC29213
Experimental: as §1

[14] = system: Staphylococcus aureus ATCC 14154; test: In vitro MIC, broth micro dilution; assay type: cell-based; details: ATCC14154
Experimental: as §1

[15] = system: Enterococcus faecalis ATCC 14506; test: In vitro MIC, broth micro dilution; assay type: cell-based; details: ATCC14506
Experimental: as §1

[16] = system: Streptococcus pyogens ATCC 14289; test: In vitro MIC, broth micro dilution; assay type: cell-based; details: ATCC14289
Experimental: as §1

[17] = system: Staphylococcus epidermidis ATCC 155; test: In vitro MIC, broth micro dilution; assay type: cell-based; details: ATCC155
Experimental: as §1

[18] = system: Klebsiella pneumoniae ATCC 700571; test: In vitro MIC, broth micro dilution; assay type: cell-based; details: ATCC700571
Experimental: as §1

[19] = system: Staphylococcus aureus ATCC 700699; test: In vitro MIC, broth micro dilution; assay type: cell-based; details: ATCC700699
Experimental: as §1

[20] = in vivo; details: male, Sprague-Dawley, rat, po, 30 mg/kg

Row | MIC [1] | MIC [2] | MIC [3] | MIC [4] | MIC [5] | MIC [6] | MIC [7] | MIC [8] | MIC [9] | MIC [10] | MIC [11] | MIC [12] | MIC [13] | MIC [14] | MIC [15] | MIC [16] | MIC [17] | MIC [18] | MIC [19] | AUC [20] | Compound | further results
1 | 3.12 µM (≈ 1.69 µg/mL) | 1.56 µM (≈ 0.844 µg/mL) | 50 µM (≈ 27 µg/mL) | 6.25 µM (≈ 3.37 µg/mL) | 0.781 µM (≈ 0.422 µg/mL) | 0.781 µM (≈ 0.422 µg/mL) | 12.5 µM (≈ 6.75 µg/mL) | 0.781 µM (≈ 0.422 µg/mL) | 50 µM (≈ 27 µg/mL) | ≤ 0.391 µM | 6.25 µM (≈ 3.37 µg/mL) | 0.781 µM (≈ 0.422 µg/mL) | 1.56 µM (≈ 0.844 µg/mL) | 1.56 µM (≈ 0.844 µg/mL) | 6.25 µM (≈ 3.37 µg/mL) | 0.781 µM (≈ 0.422 µg/mL) | ≤ 0.391 µM | 1.56 µM (≈ 0.844 µg/mL) | 25 µM (≈ 13.5 µg/mL) | 7400 ± 1780 ng·h/mL | O=C(O)c1cn(C2CC2)c2cc(N3CCN(CC4CCOc5cc(Cl)ccc5C4=O)CC3)c(F)cc2c1=O (centres unmarked) [Compound 6, 7-[4-(8-Chloro-5-oxo-2,3,4,5-tetrahydro-benzo[b]oxepin-4-ylmethyl)-piperazin-1-yl]-1-cyclopropyl-6-fluoro-4-oxo-1,4-dihydro-quinoline-3-carboxylic acid] | Cmax [20]: 2360 ± 1070 ng/mL; Tmax [20]: 1.33 ± 0.53 h; half-life [20]: 1.66 ± 0.73 h
2 | 3.12 µM (≈ 1.62 µg/mL) | 3.12 µM (≈ 1.62 µg/mL) | > 50 µM | 12.5 µM (≈ 6.49 µg/mL) | 3.12 µM (≈ 1.62 µg/mL) | 1.56 µM (≈ 0.812 µg/mL) | 12.5 µM (≈ 6.49 µg/mL) | 1.56 µM (≈ 0.812 µg/mL) | 25 µM (≈ 13 µg/mL) | ≤ 0.391 µM | 3.12 µM (≈ 1.62 µg/mL) | 1.56 µM (≈ 0.812 µg/mL) | 3.12 µM (≈ 1.62 µg/mL) | 1.56 µM (≈ 0.812 µg/mL) | 12.5 µM (≈ 6.49 µg/mL) | 1.56 µM (≈ 0.812 µg/mL) | 0.781 µM (≈ 0.406 µg/mL) | 6.25 µM (≈ 3.25 µg/mL) | > 50 µM | 85800 ± 39900 ng·h/mL | COc1ccc2c(c1)CCC(CN1CCN(c3cc4c(cc3F)c(=O)c(C(=O)O)cn4C3CC3)CC1)C2=O (centres unmarked) [Compound 1, 1-Cyclopropyl-6-fluoro-7-[4-(6-methoxy-1-oxo-1,2,3,4-tetrahydro-naphthalen-2-ylmethyl)-piperazin-1-yl]-4-oxo-1,4-dihydro-quinoline-3-carboxylic acid] | Cmax [20]: 10600 ± 2610 ng/mL; Tmax [20]: 4 h; half-life [20]: 9.55 ± 2.83 h
3 | 1.56 µM (≈ 0.499 µg/mL) | 3.12 µM (≈ 0.998 µg/mL) | > 50 µM | 25 µM (≈ 7.98 µg/mL) | 3.12 µM (≈ 0.998 µg/mL) | 3.12 µM (≈ 0.998 µg/mL) | > 50 µM | 1.56 µM (≈ 0.499 µg/mL) | > 50 µM | ≤ 0.391 µM | 6.25 µM (≈ 2 µg/mL) | 6.25 µM (≈ 2 µg/mL) | 3.12 µM (≈ 0.998 µg/mL) | 3.12 µM (≈ 0.998 µg/mL) | 25 µM (≈ 7.98 µg/mL) | 3.12 µM (≈ 0.998 µg/mL) | 0.781 µM (≈ 0.249 µg/mL) | 6.25 µM (≈ 2 µg/mL) | > 50 µM |  | CCn1cc(C(=O)O)c(=O)c2cc(F)c(N3CCNCC3)cc21 [Norfloxacin, reference compound] | 
